Results taken from US6596756B1, “Treatment of fibromyalgia” (Eli Lilly and Company, priority 1999, dated 2003).
Where two headings read alike, the source gives them in different places.

How the values were obtained:
[1] = tested on: mechanical allodynia due to the nerve ligation in rats; conditions: rat; for Allodynia Response: nerve ligation, mean ± SEM, p < 0.05 vs vehicle
Method: All data were analyzed using the JMP statistical program. […] Data were evaluated by one-way analysis of variance (ANOVA) and the appropriate contrasts analyzed by Tukey's test and Dunnett “t” test for two-sided comparisons.

[2] = tested on: formalin-induced paw-licking behavior in the rat; conditions: for Early Phase (sum of time spent licking, 0 to 5 minutes) / Late Phase (sum of seconds spent licking, 15 to 40 minutes): mean ± SEM
Source text: (Shibata, M., Ohkubo, T., Takahashi, H., and Inoki, R., “Modified formalin test: Characteristic biphasic pain response,” Pain (1989) 38: 347-352; and Tjolsen, A., Berge, O. G., Hunskaar, S., Rosland, J. H., and Hole, K., “The formalin test: an evaluation of the method,” Pain (1992) 51:5-17.) The effect of duloxetine on formalin-induced paw-licking behavior in the rat was investigated as an index of persistent nociceptive activation. In this test, the injection of formalin under the skin on the dorsal lateral surface of the hind paw of rats causes an immediate and intense increase in the spontaneous activity of C fiber afferents. This activation evokes a distinctly quantifiable behavior indicative of pain, such as licking, flinching, shaking or biting of the injected paw. The behavioral response to formalin is biphasic, with an early phase that is short lived, followed by an extended tonic response or late phase of persistent nociceptive activation. Mechanisms causing the late phase response, such as central sensitization of pain transmitting neurons, are currently believed to contribute to various types of persistent pains.
(§1) Male Sprague-Dawley rats (200-250 g; Charles River, Portage, Mich.) were maintained at constant temperature and light (12 h light/12 h dark) for 4-7 days prior to the studies. Animals had free access to food and water at all times prior to the day of the experiment.
The formalin test was performed in custom made Plexiglas® boxes 25×25×20 cm (length×width×height) in size. A mirror placed at the back of the box allowed the unhindered observation of the formalin injected paw. Rats were acclimatized individually in the cubicles at least 1 hour prior to the experiment. All testing was conducted between 08:00 and 14:00 hr and the testing room temperature was maintained at 21-23° C. Test compound was administered 30 or 60 minutes prior to the formalin injection. Formalin (50 μl of a 5% solution in saline) was injected subcutaneously into the dorsal lateral surface of the right hind paw with a 27 gauge needle. Observation started immediately after the formalin injection. Formalin-induced pain was quantified by recording in 5 minute intervals the number of formalin injected paw licking events and the number of seconds each licking event lasted. These recordings were made for 50 minutes after the formalin injection. After the experiment, animals were killed with an overdose of CO2. (Euthanasia protocol, Eli Lilly Animal Use and Care Committee.)
Scoring in the formalin test was performed according to Coderre et al., 1993b and Abbott et al., 1995. (Coderre T. J., Fundytus M. E., McKenna J. E., Dalal S. and Melzack R. “The formalin test: a validation of the weighted-scores method of the behavioral pain rating,” Pain(1993b) 54: 43-50; and Abbott F. V., Franklin K. B. J. and Westbrook R. F. “The formalin test: scoring properties of the first and second phases of the pain response in rats,” Pain (1995) 60: 91-102.) The sum of time spent licking in seconds from time 0 to 5 minutes was considered the early phase while the late phase was taken as the sum of seconds spent licking from 15 to 40 minutes.
Data are presented as means with standard errors of means (±SEM). Data were evaluated by one-way analysis of variance (ANOVA) and the appropriate contrasts analyzed by Tukey's test and Dunnett “t” test for two-sided comparisons.

Male Sprague-Dawley rats = conditions: rat; for Ataxia score 80 mins after drug, i.p. / Ataxia score, 30 mins after drug, i.p. / Ataxia Score, 60 mins after drug, p.o. / Ataxia score 110 mins after drug, p.o.: maximum score 40 seconds, mean ± SEM
Method: The tendency of duloxetine to induce ataxia or neuromuscular effects at analgesic doses was investigated using the well-known rotorod test.
as §1
An automated accelerating rotorod (Omnitech Electronics Inc., Columbus, Ohio) connected to an IBM PC computer was utilized. For training and testing purposes, the rotorod was set up to accelerate to 17 r.p.m. in 5 seconds and maintaining that speed for 40 seconds. Rats were given 3 training trials to learn to maintain posture on the rotorod prior to the actual day of drug testing. The following day, rotorod testing was conducted both at 30 and 80 minutes for i.p. and at 60 and 110 minutes for p.o. following administration of drug or compound.
All data were analyzed using the JMP statistical program. Data are presented as means with standard errors of means (±SEM). Data were evaluated by one-way analysis of variance (ANOVA) and the appropriate contrasts analyzed by Tukey's test and Dunnett “t” test for two-sided comparisons.

[3] = 3 mg/kg i.p., 30 min before formalin
[4] = 3 mg/kg p.o., 60 min before formalin

**Q.** How did the “effect on allodynia following partial ligation of the sciatic nerve (in words)” value ([1]; after acute or sub-chronic systemic administration) turn out when `CNCCC(Oc1cccc2ccccc12)c1cccs1` (stereo not drawn) [duloxetine, N-methyl-3-(1-naphthalenyloxy)-3-(2-thienyl)propanamine] was run?
**A.** attenuates the allodynia

**Q.** What about the “Allodynia Response” value ([1]; 15 mg/kg i.p., 1 hour pretreatment) of the same compound?
**A.** 8.57 ± 1.72 g

**Q.** What about the “Allodynia Response” value ([1]; 20 mg/kg p.o., 1 hour pretreatment) of the same compound?
**A.** 8.53 ± 1.66 g

**Q.** And the “Allodynia Response” value ([1]; 20 mg/kg × 4 day p.o., sub-chronic pretreatment (once a day for four consecutive days))?
**A.** 9.18 ± 2.95 g

**Q.** And the “Early Phase (sum of time spent licking, 0 to 5 minutes)” value (“Early Phase” below) [2, 3]?
**A.** 32.78 ± 15.97 s

**Q.** And the “Late Phase (sum of seconds spent licking, 15 to 40 minutes)” value [2, 3]?
**A.** 254.00 ± 45.87 s

**Q.** And the “Early Phase” value [2, 4]?
**A.** 21.78 ± 5.14 s

**Q.** What about the “Late Phase (sum of seconds spent licking, 15 to 40 minutes)” value [2, 4] of the same compound?
**A.** 393.56 ± 26.74 s

**Q.** And the “Early Phase” value ([2]; 10 mg/kg i.p., 30 min before formalin)?
**A.** 17.00 ± 5.83 s

**Q.** And the “Late Phase (sum of seconds spent licking, 15 to 40 minutes)” value ([2]; 10 mg/kg i.p., 30 min before formalin, p < 0.05 vs vehicle)?
**A.** 163.89 ± 54.14 s

**Q.** What about the “Early Phase” value ([2]; 10 mg/kg p.o., 60 min before formalin) of the same compound?
**A.** 20.22 ± 5.29 s

**Q.** What about the “Late Phase (sum of seconds spent licking, 15 to 40 minutes)” value ([2]; 10 mg/kg p.o., 60 min before formalin, p < 0.05 vs vehicle) of the same compound?
**A.** 255.78 ± 38.22 s

**Q.** What about the “Early Phase” value ([2]; 15 mg/kg i.p., 30 min before formalin) of the same compound?
**A.** 29.56 ± 16.30 s

**Q.** What about the “Late Phase (sum of seconds spent licking, 15 to 40 minutes)” value ([2]; 15 mg/kg i.p., 30 min before formalin, p < 0.05 vs vehicle) of the same compound?
**A.** 80.44 ± 36.22 s

**Q.** What about the “Early Phase” value ([2]; 20 mg/kg p.o., 60 min before formalin) of the same compound?
**A.** 12.67 ± 3.61 s

**Q.** And the “Late Phase (sum of seconds spent licking, 15 to 40 minutes)” value ([2]; 20 mg/kg p.o., 60 min before formalin, p < 0.05 vs vehicle)?
**A.** 161.11 ± 31.77 s

**Q.** What about the “effect on late phase response to formalin (in words)” value ([2]; i.p. and p.o. dosing) of the same compound?
**A.** blocks the late phase response to formalin in a dose-dependent manner

**Q.** And the “Ataxia score 80 mins after drug, i.p.” value (Male Sprague-Dawley rats; 3 mg/kg i.p.)?
**A.** 33.35 ± 3.23 s

**Q.** And the “Ataxia score, 30 mins after drug, i.p.” value (Male Sprague-Dawley rats; 3 mg/kg i.p.)?
**A.** 34.27 ± 4.02 s

**Q.** And the “Ataxia Score, 60 mins after drug, p.o.” value (Male Sprague-Dawley rats; 3 mg/kg p.o.)?
**A.** 40.00 ± 0.00 s

**Q.** And the “Ataxia score 110 mins after drug, p.o.” value (Male Sprague-Dawley rats; 3 mg/kg p.o.)?
**A.** 40.00 ± 0.00 s

**Q.** And the “Ataxia score 80 mins after drug, i.p.” value (Male Sprague-Dawley rats; 10 mg/kg i.p.)?
**A.** 26.07 ± 6.24 s

**Q.** And the “Ataxia score, 30 mins after drug, i.p.” value (Male Sprague-Dawley rats; 10 mg/kg i.p.)?
**A.** 29.42 ± 6.71 s

**Q.** What about the “Ataxia Score, 60 mins after drug, p.o.” value (Male Sprague-Dawley rats; 10 mg/kg p.o.) of the same compound?
**A.** 39.11 ± 0.89 s

**Q.** And the “Ataxia score 110 mins after drug, p.o.” value (Male Sprague-Dawley rats; 10 mg/kg p.o.)?
**A.** 39.56 ± 0.44 s

**Q.** What about the “Ataxia Score, 60 mins after drug, p.o.” value (Male Sprague-Dawley rats; 20 mg/kg p.o.) of the same compound?
**A.** 40.00 ± 0.00 s

**Q.** What about the “Ataxia score 110 mins after drug, p.o.” value (Male Sprague-Dawley rats; 20 mg/kg p.o.) of the same compound?
**A.** 40.00 ± 0.00 s

**Q.** And the “Ataxia score 80 mins after drug, i.p.” value (Male Sprague-Dawley rats; 30 mg/kg i.p.)?
**A.** 25.52 ± 5.89 s

**Q.** What about the “Ataxia score, 30 mins after drug, i.p.” value (Male Sprague-Dawley rats; 30 mg/kg i.p.) of the same compound?
**A.** 24.75 ± 6.88 s

**Q.** And the “ataxia or neuromuscular effects in the rotorod test (in words)” value (Male Sprague-Dawley rats; at doses that caused analgesia)?
**A.** did not show ataxia or neuromuscular effects
